Data published in patent US10064858B2, “Methods and compositions for treating bacterial infections with iron chelators” (THE UNITED STATES OF AMERICA, AS REPRESENTED BY THE …, priority 2011, dated 2018).

Tests used:
[1] = test system: Acinetobacter baumannii strain 5711 (AB5711); assay: Growth (OD600) of AB5711 in low iron media with chelators, with or without FeCl3; assay type: cell-based; conditions: for bacterial growth (OD600 growth curves): AB5711, low iron media, 100 μM or 200 μM chelator added after 4 hr, 24 hr
Experimental: Acinetobacter baumannii strain 5711 (AB5711) was grown overnight in LB media and sub-cultured into low iron media. The tested iron chelators were deferoxamine (DFO), deferiprone (DFP), 2,2-dipyridyl, and VK28. The iron chelators were added after 4 hr of growth.
Bacterial growth was estimated by absorption at OD600 every 4 hr for 24 hr. Optical density (OD) at 600 nm (OD600) as measured by a spectrophotometer is a widely used technique known by one skilled in the art to estimate the total number of bacterial cells present in a broth culture (CFU/ml). The exact amount of OD produced by a culture will depend on the concentration of cells present, the species and strain of microbe present, the growth conditions used, and the wavelength of the light being transmitted. Thus, the relationship between OD and cell concentrations will depend on the specific strain and growth conditions studied. For example, the OD600 of 1 for E. coli is about 1×10^9 CFU/ml.
This example provides further evidence that the removal of iron is responsible for bacterial growth inhibition. A. baumannii isolate 5711 was grown in low iron M9 media supplemented with 0 μM, 10 μM, or 100 μM FeCl3 with and without the addition of 200 μM VK28 following 4 hr of growth. Growth was estimated by absorbance at 600 nm every 4 hr for 24 hr.
This example provides further evidence that the removal of iron is responsible for bacterial growth inhibition. A. baumannii isolate 5711 was grown in low iron M9 media supplemented with 0 μM, 10 μM, 100 μM, or 1000 μM FeCl3 with and without the addition of 50 μg/ml of VK28 following 4 hr of growth. Growth was estimated by absorbance at 600 nm after 20 hours.

EC 35218, EC 43888 = assay: Checkerboard assay, chelator with antibiotic (FIC); assay type: cell-based, E. coli
From the text: Drug interactions were initially evaluated with the “checkerboard” microdilution design, which provided a matrix of all drug combinations assayed in terms of fractions of the previously determined MIC. The checkerboard microdilution design is described in R. J. Tallarida, “Drug Synergism: Its Detection and Applications,” Journal of Pharmacology and Experimental Therapeutics, 865-872 (2001); and in R. L. White, et al., (1996), supra. FIGS. 39A and 39B show the wellplates having different concentrations of iron chelator and antibiotic, as labeled along the x-axis and y-axis.
The checkerboard assay was used to asses other combinations of iron chelators and antibiotics. The fractional inhibitory concentration index (FIC), which was calculated as follows: FIC=(MIC A in combination/MIC A)+(MIC B in combination/MIC B). Interaction was defined as synergistic if the FIC was <1.0, preferably <0.5, no interaction if the FIC was >1.0 and <4.0, and antagonistic if the FIC was >4.0. […]
The assay was run against the multi-drug resistant bacterial species AB 19606, AB 17978, EC 35218, and EC 43888.

[2] = test system: AB5075 a MDR-clinical isolate of A. baumannii; assay: Time-kill assay in CAMHB; assay type: cell-based; conditions: for time-kill course of CFU/mL: 24 hours (FIG. 8A); for effect on CFU/ml (time-kill, FIG. 13): 2 and 6 hours
Experimental: (§1) Reductions in colony forming units (CFU)/mL were determined over time (time-kill assay) after exposure to VK28 and deferiprone (DFP), the two iron chelators that performed best in MIC assays when compared to controls. To better represent the iron content found in the human body, MIC and time-kill assays were also determined in minimal media and tissue culture media. Time-Kill assays were performed as previously described in G. P. Neupane et al., “In vitro time-kill activities of ciprofloxacin alone and in combination with the iron chelator deferasirox against Vibrio vulnificus,” European Journal of Clinical Microbiology and Infectious Diseases, 407-410 (2010); and R. L. White, et al., “Comparison of Three Different In Vitro Methods of Detecting synergy: Time-Kill, Checkerboard, and E test,” Journal of Antimicrobial Agents and Chemotherapy, 1914-1918 (1996). Initial inocula, for example 1×10^6 CFU/mL or 1×10^7 CFU/mL were challenged with iron chelator with and/or without an antibiotic. Cells were allowed to grow in CAMHB at 37° C. for 24 hours. Time-kill results were analyzed by determining the change in log 10 numbers of CFU/ml at 0, 6, and 24 h, compared to counts at 0 h. Antimicrobials were considered bactericidal at the lowest concentration that reduced the size of the original inoculum by >3 log 10 CFU/ml (99.9%) over each of the time periods and were considered bacteriostatic if the inoculum's size was reduced by 0 to <3 log 10 CFU/ml.
In this example, time-kill assays were performed as described in Example 9 using Apo6619 as the iron chelator against AB5075 (MRSN959), the MDR-clinical isolate of A. baumannii. The initial inocula was 1×10^6 CFU/mL, and were challenged with 0.5×MIC, 1×MIC and 2×MIC of Apo6619. Time-kill results were analyzed by determining the change in log 10 numbers of CFU/mL at 0, 2 and 4 hours.
In this example, time-kill assays were performed as described in Example 9 using VK28 or DFP as the iron chelator against AB5075, the MDR-clinical isolate of A. baumannii. The initial inocula was 1×10^6 CFU/mL, and were challenged with 0.5×MIC, 1×MIC and 2×MIC of either VK28 or DFP. Time-kill results were analyzed by determining the change in log 10 numbers of CFU/mL at 2 and 6 hours.

AB5075 = assay: Time-kill assay in M9 minimal media; assay type: cell-based, A. baumannii; conditions: 24 hours
Experimental: as §1
The untreated sample (♦) had greater than 1×10^9 CFU/mL after 9 hours that was sustained at 24 hours.

[3] = EC 35218, in combination with Cefotaxine
[4] = EC 35218, in combination with Colisitin
[5] = EC 35218, in combination with Doxycycline
[6] = EC 35218, in combination with Rifampin
[7] = EC 43888, in combination with Cefotaxine
[8] = EC 43888, in combination with Colisitin
[9] = EC 43888, in combination with Doxycycline
[10] = EC 43888, in combination with Rifampin

Compound | bacterial growth (OD600 growth curves) [1] | FIC (EC 35218, EC 43888; [3]) | FIC (EC 35218, EC 43888; [4]) | FIC (EC 35218, EC 43888; [5]) | FIC (EC 35218, EC 43888; [6]) | FIC (EC 35218, EC 43888; [7]) | FIC (EC 35218, EC 43888; [8]) | FIC (EC 35218, EC 43888; [9]) | FIC (EC 35218, EC 43888; [10]) | time-kill course of CFU/mL ([2]; 0.5×MIC, CAMHB) | effect on CFU/ml (time-kill, FIG. 13) ([2]; 1×MIC) | time-kill course of CFU/mL ([2]; 1×MIC, CAMHB) | effect on CFU/ml (time-kill, FIG. 13) ([2]; 2×MIC) | time-kill course of CFU/mL ([2]; 2×MIC, CAMHB) | time-kill course of CFU/ml (AB5075; 0.5×MIC) | time-kill course of CFU/ml (AB5075; 1×MIC) | time-kill course of CFU/ml (AB5075; 2×MIC) | also measured
Cc1c(O)c(=O)ccn1C [ApoL1, 3-hydroxy-1,2-dimethyl-4(1H)-pyridone] | somewhat reduced bacterial growth | 1.25 | 1.25 | 1.25 | 0.75 | 1.25 | 1.25 | 1.25 | 0.75 | reduced level of CFU/ml at 2 and 6 hours but did increase in CFU at 24 hours to levels as seen in the untreated sample | slight inhibitory effect | reduced level of CFU/ml at 2 and 6 hours but did increase in CFU at 24 hours to levels as seen in the untreated sample | stronger inhibitory effect | did not have a substantial increase in CFU/ml over the 24 hour period | slight reduction in CFU/ml levels over the 24 hour period | slight reduction in CFU/ml levels over the 24 hour period | sustained level of CFU/ml obtained over the 24 hour period | 
CNC(=O)c1c(O)c(=O)cc(C)n1C1CC1 [Apo6619, 1-cyclopropyl-3-hydroxy-6-methyl-4-oxo-1,4-dihydro-pyridine-2-carboxylic acid methylamide] |  | 1.25 | 1.25 | 1.25 | 1.75 | 1.25 | 1.25 | 1.25 | 0.75 |  |  |  |  |  |  |  |  | time-kill effect ([2]; 0.5×MIC, 1×MIC and 2×MIC, 0, 2 and 4 hours): bactericidal (considered bactericidal at the lowest concentration that reduced the size of the original inoculum by >3 log 10 CFU/ml (99.9%))
OCCN1CCN(Cc2ccc(O)c3ncccc23)CC1 [VK28, 5-(4-(2-hydroxyethyl)piperazin-1-ylmethyl)-8-hydroxyquinoline] | reduced bacterial growth to a significant extent |  |  |  |  |  |  |  |  | initial decrease in CFU/mL at 2 and 6 hours, but rebounded | inhibitory effect on the CFU/ml | did not increase in CFU over the 24 hour period | inhibitory effect on the CFU/ml | decrease in CFU/mL after 2 hours that was sustained through the 24 hour period | slight inhibitory effect on the CFU/ml over the 24 hours | slight inhibitory effect on the CFU/ml over the 24 hours | slight inhibitory effect on the CFU/ml over the 24 hours | growth with FeCl3 added (absorbance at 600 nm after 20 hours) ([1]; 50 μg/ml of VK28 with 10, 100 or 1000 μM FeCl3, low iron M9 media): inhibition of growth can be rescued by the addition of FeCl3; growth with free iron added back ([1]; 200 μM VK28 with 10 μM or 100 μM FeCl3, low iron M9 media): bacteria are rescued from the VK28 growth inhibition; effect on CFU/ml (time-kill, FIG. 13) ([2]; 0.5 MIC): inhibitory effect on the CFU/ml; CFU/mL at 24 hours ([2]; 0.5 MIC, CAMHB): about 1×10^9 CFU/mL
